Test results from patent US9521845B2, “Beta-lactones as antibacterial agents” (LUDWIG-MAXIMILIANS-UNIVERSITÄT-MÜNCHEN, priority 2008, dated 2016).
“Also recorded” adds a separate entry of the source.

What was measured:
[1] = molecular target: T1, S-formylglutathione hydrolase (SFGH) (Escherichia coli, UniProt P51025); experiment: Substrate inhibition assay (p-nitrophenylacetate), IC50 determination; assay type: biochemical; conditions: beta-lactone G2; substrate 2.4 mM, enzyme 30 nM; estimated
T1 construct: made in house; host or cells: E. coli BL21
T1 sequence (P51025 whole entry): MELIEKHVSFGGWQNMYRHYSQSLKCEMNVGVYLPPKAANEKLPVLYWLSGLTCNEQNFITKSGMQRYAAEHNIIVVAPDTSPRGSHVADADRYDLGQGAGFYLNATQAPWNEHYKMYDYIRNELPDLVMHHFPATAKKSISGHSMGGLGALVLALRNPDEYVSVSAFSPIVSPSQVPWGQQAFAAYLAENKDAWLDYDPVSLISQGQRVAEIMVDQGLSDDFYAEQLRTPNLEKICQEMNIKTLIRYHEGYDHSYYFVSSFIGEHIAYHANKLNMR
Description: SFGH mediated […] of the p-nitrophenylacetate leads to the release of p-nitrophenol which can be monitored at 400 nm. Various concentrations of beta-lactone G2 were added to a solution containing the substrate (2.4 mM) and enzyme (30 nM). Reactions were started by addition of the enzyme and subsequently monitored for 6 min. The mean average slopes of absorption (out of three independent experiments) versus beta-lactone concentration were plotted and the concentration of 50% inhibition (IC50) was estimated.

lipase (Lip) = experiment: ABPP probe dose down in proteome, lipase labeling; assay type: binding; conditions: L. welshimeri proteome, concentration range 10 μM to 5 nM
Description: (§1) To estimate the strength of probe interactions with proteins in the proteome, we compared the reactivity profiles of selected beta-lactones across a broad concentration range from 10 μM to 5 nM.
(§2) Proteome samples were adjusted to a final concentration of 1 mg protein/mL by dilution in PBS prior to probe labeling. Experiments for visualization by 1D SDS-PAGE were carried out in 43 μL total volume and those for affinity enrichment in 1892 μL total volume, such that once CC reagents were added, the total reaction volume was 50 μL and 2 mL, respectively. Reactions were initiated by addition of the probe and allowed to incubate for 60 min at room temperature. For heat controls the proteome was denatured with 1 μL of 43% SDS at 95° C. for 6 min and cooled to room temperature before the probe was applied. Following incubation, reporter tagged-azide reagents (13 μM rhodamine-azide for analytical or 20 μM rhodamine-biotin-azide for preparative scale) were added followed by 1 mM TCEP and 100 μM ligand. Samples were gently vortexed and the cycloaddition initiated by the addition of 1 mM CuSO4. The reactions were incubated at room temperature for 1 h (Speers, J. Amer. Chem. Soc. 125 (2003), 4686).

[2] = tested on: lipase/acylhydrolase (LipAc); experiment: ABPP probe dose down in proteome, lipase/acylhydrolase labeling; assay type: binding; conditions: L. welshimeri proteome
Description: as §1, §2

[3] = molecular target: T2, Aldehyde dehydrogenase B (ADB) (Escherichia coli, UniProt P37685); experiment: ABPP labeling of E. coli cytosol; assay type: binding; conditions: 100 nM probe concentration, no other off targets
T2 construct: endogenous in cells; host or cells: Escherichia coli K12 lysate, cytosol fraction
T2 sequence (P37685 whole entry): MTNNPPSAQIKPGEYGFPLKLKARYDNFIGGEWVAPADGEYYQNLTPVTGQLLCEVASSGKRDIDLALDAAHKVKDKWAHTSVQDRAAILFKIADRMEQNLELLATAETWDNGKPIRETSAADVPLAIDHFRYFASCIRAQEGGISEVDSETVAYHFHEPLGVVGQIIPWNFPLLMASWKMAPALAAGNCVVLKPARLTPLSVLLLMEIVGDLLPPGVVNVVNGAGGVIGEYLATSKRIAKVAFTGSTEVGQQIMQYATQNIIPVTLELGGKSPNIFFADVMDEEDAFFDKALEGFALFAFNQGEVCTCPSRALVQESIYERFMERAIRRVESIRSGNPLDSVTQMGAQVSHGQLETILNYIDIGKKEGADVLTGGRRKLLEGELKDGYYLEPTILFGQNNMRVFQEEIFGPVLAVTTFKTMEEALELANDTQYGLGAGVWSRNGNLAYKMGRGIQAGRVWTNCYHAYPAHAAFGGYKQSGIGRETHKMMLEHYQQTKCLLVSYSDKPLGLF
Description: as §1, §2

[4] = tested on: β-Ketoacyl acyl carrier protein synthase II (KAS II); experiment: ABPP labeling of bacterial proteomes, KAS II; assay type: binding, L. welshimeri, B. subtilis; conditions: 50 μM probe, FIGS. 9A and 9B
Excerpt: The library of beta-lactones to be tested comprised compounds with aliphatic or aromatic substitutions varying in length and branching. To evaluate the target selectivity, the beta-lactones were screened against several gram-positive and gram-negative bacterial proteomes including Pseudomonas putida, Listeria welshimeri, Bacillus licheniformis, Bacillus subtilis and Escherichia coli, which are phylogenetically related to pathogenic strains. In addition, mouse liver cytosol was included as an eukaryotic reference proteome. Initial labeling experiments were carried out by adding individual probes at 50 μM concentration to the proteome which is sufficient to achieve full saturation of most targets. […] As an example, labeling of L. welshimeri cytosolic and membrane proteomes as well as B. subtilis cytosolic proteome with a subset of the most complementary probes is shown in FIGS. 9A and 9B. […] Most of the targeted proteins were of low abundance as shown by the direct comparison of the relative intensities observed with Coomassie staining vs. fluorescence scanning (FIG. 11).
Proteome samples were adjusted to a final concentration of 1 mg protein/mL by dilution in PBS prior to probe labeling. […]

[5] = tested on: LLO haemolytic activity of L. monocytogenes EGDe; experiment: LLO haemolytic activity testing of culture supernatants; assay type: cell-based, Listeria monocytogenes EGDe; conditions: Listeria monocytogenes, Erythrocyte; cultures grown 16 h with lactone, sheep red blood cells; read-out: EC50 of reduction of LLO haemolytic activity
Description: Overnight cultures of L. monocytogenes EGDe were harvested by centrifugation and resuspended in an equal volume of fresh BHB medium. In 1.5 mL Eppendorf tubes, 400 μL of BHB medium were inoculated with 4 μL of the resuspended Listeria culture and 4 μL of a corresponding beta-lactone stock in DMSO. The final concentrations were 800 μM, 400 μM, 200 μM, 100 μM and DMSO as control. The amount of DMSO in all tests was 1% of the medium. After mixing, the test tubes were incubated under continuous shaking at 200 rpm at 37° C. for 16 h. Then, cells were centrifuged and the supernatants filtered sterile by passing them through a 0.2 μm pore size filter. Haemolytic activity of LLO in the culture supernatants was quantitatively investigated according to a method described in J. Food Safety 1998, 18: 197-203 (incorporated herein by reference) with some modifications. In Nunclon™ 96-well plates with round shaped wells 100 μL of serial dilutions of the supernatants in PBS were added per well and incubated with 100 μL of 3% SRBC (sheep red blood cells) resuspended in PBS for 15 min at 37° C. under gentle shaking. The 96-well plates were centrifuged at 600 rpm for 5 min and the minimum dilution at which intact blood cells began to form a pellet was recorded. Controls with no lactone were set 100%. Buffer only controls and pure BHB medium yielded no haemolysis.

HeLa cells = experiment: Cytotoxicity, WST-1 cell proliferation test; assay type: cell-based; conditions: up to a concentration of 1 mM (300 mg/L), 24 h
Description: Cytotoxicity was determined in HeLa cells using the WST-1 cell proliferation test. Trypsinated cells were seeded at 100 μL aliquots with antibiotic free medium in Nunclon™ flat-bottom 96-well plates with 1·10^4 cells per well. After incubation of HeLa cells for 24 h, the medium was replaced by antibiotic free test medium containing 1 mM, 100 μM and 10 μM beta-lactone U1, DMSO as non-toxic control and 1% Triton X-100 as 100% lethal control. The DMSO content in all tests was kept at 1%. HeLa cells with test medium were incubated for 24 h, then 10 μL WST-1 reagent were added and after 30 min incubation absorption at 450 nm was read with 630 nm reference wavelength using a TECAN GENios Pro microplate reader.

[6] = tested on: Listeria monocytogenes EGDe in the mouse macrophage-like cell line J774; experiment: Infection of J774 cells and intracellular growth assay; assay type: cell-based; conditions: 1 mM, 3 h and 5 h post infection, vs DMSO
Description: In a Nunclon™ 96-well plate with flat-bottom 1·10^5 J774 cells per well were seeded in 100 μL 90% DMEM medium with 10% FBS without antibiotics. After 24 h incubation the resulting monolayer was washed once with 100 μL PBS and 100 μL of L. monocytogenes EGDe suspension in 90% DMEM medium with 10% FBS without antibiotics was added either with 1 mM beta-lactone U1 or DMSO. L. monocytogenes was grown in an over night culture with beta-lactone/DMSO and resuspended to approximately 10^6 cells/mL resulting in a multiplicity of infection (MOI) of 0.5. Macrophages were infected for 15 min at 37° C. after 15 min bacterial adherence on ice, as described in Molecular Microbiol. 2000, 35(6): 1286-1294 (incorporated herein by reference). Thereafter, the infected monolayer were washed two times with 100 μL PBS each and fresh 90% DMEM medium with 10% FBS containing 10 μg/mL gentamicin and 1 mM beta-lactone U1 or DMSO was added. After 0, 3 and 5 h post infection, the monolayers were washed again with two times 100 μL PBS and eukaryotic cells lysed by the addition of two times 250 μL of 0.05% solution of Triton X-100 in sterile deionised water. Intracellular bacteria were quantified by colony counting of serial dilutions plated on Listeria-agar (Ottaviani & Agosti Agar, Heipha Diagnostika, Eppelheim, Germany).

SMILES | IC50 [1] [µM] | probe concentration down to which lipase is labeled (lipase (Lip)) [nM] | interaction with lipase/acylhydrolase (LipAc) [2] | ADB labeling preference [3] | KAS II labeling [4] | EC50 [5] [µM] | cytotoxicity to HeLa cells (HeLa cells) | lower growth in the eukaryotic cells [6]
C#CCCCC1OC(=O)C1CCCC (stereo not drawn) [G2, trans-3-butyl-4-(4-pentyn-1-yl)oxetan-2-one] | 5 | 20 | does not exhibit strong interaction | strong preference | labeled |  |  | 
C=CCCCCCCCC1C(=O)OC1CCc1ccccc1 (centres unmarked) [U1] |  |  |  |  |  | < 100 | non-cytotoxic; also recorded: Neither microscopic alterations of cell morphology nor significant inhibition of cell proliferation | approximately 76%
